Test results reported in patent publication US9028858B2 (Coloplast A/S, priority 2003, dated 2015).
Like-named read-outs stand apart in the source and are kept apart here.

What was measured:
[1] = for Degradation rate of 1% H2O2: Rate constant (k) (%/day) / Degradation rate of 1% H2O2: log k (%/day): 500 µg/mL DETAPMP, 10 mM citrate, 0.7% NaCl, pH 4
Description: The pH-value of the solution was adjusted to pH 4 with 4 M NaOH and 1 M HCl.
Seven swelling media were produced.
The irradiation dose was 2*26 kGy.
The stick-pack with “peel” was a laminated material consisting of PETP (12 μm), aluminium (9 μm) and polyethylene peel (polyethylene+10% polybutylene) (70 μm). The stick-packs were made out of a stamped area of 13×35 mm that was welded in the longitudinal direction by 1×3 units on a welder. It was welded by 2×2.2 units across in one end of the stick-pack, and in the other end by 4.0 bar, 130° C. and 3.5 s (breakable seal).

seven bacteria = assay: Antibacterial effect / antibacterial index of silver compounds; assay type: cell-based; settings: for Antibacterial index: index between 0 and 5.05; for antibacterial effect: pH 5.5, 7 and 8.5, 160 mM NaCl, 6% PEG 2000, excess undissolved salt (precipitate) present
Method: The solutions further contained 160 mM NaCl and 6% PEG 2000, and all solutions were sterilized with 50 kGy β- or γ-irradiation. β-Irradiation generally gave a better antibacterial effect and a smaller degree of coloration of the products than γ-irradiation, so β-irradiation was the preferred sterilization method. The silver compounds only worked when excess undissolved salt was allowed in the packaging, that is, they had no antibacterial effect when they were decanted from their precipitate.
The antibacterial effect of each compound was scored on a scale from 0 (no effect) to 3 (excellent effect) for each of the seven bacteria. The antibacterial index was defined as 5/12 multiplied by the sum of the square roots of the scores of each of the seven bacteria. Thus, the antibacterial index was a rational number between 0 and 5.05.

[2] = Appearance index of catheter and swelling medium after sterilization; assay type: physicochemical; settings: 0=totally unacceptable, 5=perfect
Description: The appearance index was a weighted average of the subjective acceptability after sterilization of catheters packed in one single compartment with catheter and swelling medium (on a scale from 0 to 5: 0=totally unacceptable, e.g. by strong color or major precipitation; 5=perfect, e.g. no coloration, no precipitate) of the hydrophilic catheter (weighted 60%) and the swelling medium (weighted 40%).

[3] = Various stabilizers: degradation of H2O2 at pH 4, 5.5 and 7; settings: with stabilizer, 25 mM citric acid, approx. 1% H2O2
Method: Therefore the investigation of the influence of the pH-value on the stability in our system was included in the study.
24 different kinds of swelling media containing different stabilizers (one without stabilizer) and 3 different pH-values (pH 4, 5.5 and 7) were prepared. […] The concentration of sodium chloride in each of these three swelling media was 0.7% (w/w). Sodium chloride was tested because it could be used as an osmolality increasing agent. […] Two different kinds of material for the stick-pack were used, one with “peel” and one with “non-peel”. […] The irradiation dose was 2*26 kGy.
The stick-pack with “peel” was a laminated material consisting of PETP (12 μm), aluminium (9 μm) and polyethylene peel (polyethylene+10% polybutylene) (70 μm). […] The stick-packs were made out of a stamped area of 13×35 mm that was welded in the longitudinal direction by 1×3 units on a welder. It was welded by 2×2.2 units across in one end of the stick-pack, and in the other end by 4.0 bar, 130° C. and 3.5 s (breakable seal).
The stick-packs were stored for stability testing at 23° C. and 40° C. Samples were taken out after irradiation and after 2 and 4 weeks at 40° C. and 8 and 16 weeks at 23° C.

[4] = assay type: physicochemical
Method: When the results were analyzed and further tests were carried out to confirm the results, it appeared that the effects might be third-order interactions or higher. That is, the effects came from mixtures of 3, 5, 7 or any other odd number of compounds but apparently not from main effects or 2-factor interactions. Thus, a large synergistic action between the compounds appeared to be present.

E. coli = assay: Coated catheter on inoculated agar plate, inhibition zone; assay type: cell-based; settings: 1-5 g/L in 50 mM citrate (pH 5.5), 160 mM NaCl and 6% PEG 2000
Method: (§1) A series of antibacterial agents (See Table 12.1) were swelled into a hydrophilic coating on urinary catheters. The catheters were stored about 0, 3, 6 and 12 weeks at 25° C., 40° C., and 60° C. Agar plates were inoculated with various bacterial strains clinically isolated from infected human urine, and added the coated catheter on top of the surface of the agar. The agar plates were incubated for 18 hours at 37° C., and visually tested for presence or absence of an inhibition zone.
(§2) Catheter sections with a hydrophilic coating were swelled with a solution of the anti-microbial agents and were placed on agar plates inoculated with bacteria (clinical isolates, − and + denotes […], respectively): Proteus mirabilis (−), Pseudomonas aeruginosa (−), E. coli (−), Providencia Stuartii (−), Staphylococcus aureus (+), Enterococcus faecalis (+) and Klebsielia (−).
(§3) A highly fractionated factorial design (2^15-10IV-design) was constructed by Design Expert software (version 6.0.6) and used to screen 32 of the 2^15=32768 possible combinations, where each compound was either absent or present in a relevant concentration. […] All samples were β-sterilized with a dose of 50 kGy. The constituents and concentrations of the 32 solutions are described in Table 12.1:
(§4) Many of the 32 mixtures had powerful action against several of the 7 bacteria (0=no effect; 3=excellent effect), see Table 12.2 (sorted by decreasing antibacterial effect).

Enterococcus faecalis = assay: as above; assay type: cell-based; settings: 1-5 g/L in 50 mM citrate (pH 5.5), 160 mM NaCl and 6% PEG 2000
Method: as §1, §2, §3, §4

Klebsiella = assay: as above; assay type: cell-based; settings: 1-5 g/L in 50 mM citrate (pH 5.5), 160 mM NaCl and 6% PEG 2000
Method: as §1, §2, §3, §4

Proteus mirabilis = assay: as above; assay type: cell-based; settings: 1-5 g/L in 50 mM citrate (pH 5.5), 160 mM NaCl and 6% PEG 2000
Method: as §1, §2, §3, §4

Providencia Stuartii = assay: as above; assay type: cell-based; settings: 1-5 g/L in 50 mM citrate (pH 5.5), 160 mM NaCl and 6% PEG 2000
Method: as §1, §2, §3, §4

Pseudomonas aeruginosa = assay: as above; assay type: cell-based; settings: 1-5 g/L in 50 mM citrate (pH 5.5), 160 mM NaCl and 6% PEG 2000
Method: as §1, §2, §3, §4

Staphylococcus aureus = assay: as above; assay type: cell-based; settings: 1-5 g/L in 50 mM citrate (pH 5.5), 160 mM NaCl and 6% PEG 2000
Method: as §1, §2, §3, §4

In the case of `O=P(O)(O)CN(CCN(CP(=O)(O)O)CP(=O)(O)O)CCN(CP(=O)(O)O)CP(=O)(O)O` [DETAPMP, Diethylenetriaminepenta(methylenephosphonic)acid], the “Concentration of H2O2 (%) after storage at 40° C.” value (shortened to “Concentration of H2O2 (%)”) ([1]; 50 mg/L DETAPMP, 0 days) was 0.92%, the “Concentration of H2O2 (%)” value ([1]; 50 mg/L DETAPMP, 14 days) was 0.89% and the “Concentration of H2O2 (%)” value ([1]; 50 mg/L DETAPMP, 25 days) was 0.89%. For the same molecule, the “Concentration of H2O2 (%)” value ([1]; 100 mg/L DETAPMP, 0 days) was 0.91%, the “Concentration of H2O2 (%)” value ([1]; 100 mg/L DETAPMP, 14 days) was 0.89% and the “Concentration of H2O2 (%)” value ([1]; 100 mg/L DETAPMP, 25 days) was 0.88%. For the same molecule, the “Concentration of H2O2 (%)” value ([1]; 150 mg/L DETAPMP, 0 days) was 0.91%, the “Concentration of H2O2 (%)” value ([1]; 150 mg/L DETAPMP, 14 days) was 0.90% and the “Concentration of H2O2 (%)” value ([1]; 150 mg/L DETAPMP, 25 days) was 0.89%. The “Concentration of H2O2 (%)” value ([1]; 200 mg/L DETAPMP, 0 days) was 0.91%, the “Concentration of H2O2 (%)” value ([1]; 200 mg/L DETAPMP, 14 days) was 0.89% and the “Concentration of H2O2 (%)” value ([1]; 200 mg/L DETAPMP, 25 days) was 0.89%. The “Concentration of H2O2 (%)” value ([1]; 250 mg/L DETAPMP, 0 days) was 0.90%, the “Concentration of H2O2 (%)” value ([1]; 250 mg/L DETAPMP, 14 days) was 0.89% and the “Concentration of H2O2 (%)” value ([1]; 250 mg/L DETAPMP, 25 days) was 0.89%. For the same molecule, the “Concentration of H2O2 (%)” value ([1]; 350 mg/L DETAPMP, 0 days) was 0.91%, the “Concentration of H2O2 (%)” value ([1]; 350 mg/L DETAPMP, 14 days) was 0.89% and the “Concentration of H2O2 (%)” value ([1]; 350 mg/L DETAPMP, 25 days) was 0.89%. For the same molecule, the “Concentration of H2O2 (%)” value ([1]; 500 mg/L DETAPMP, 0 days) was 0.91%, the “Concentration of H2O2 (%)” value ([1]; 500 mg/L DETAPMP, 14 days) was 0.89% and the “Concentration of H2O2 (%)” value ([1]; 500 mg/L DETAPMP, 25 days) was 0.89%. For the same molecule, the “Degradation rate of 1% H2O2: Rate constant (k) (%/day)” value (“Degradation rate … (k) (%/day)” for short) ([1]; 40° C.) was 0.0932 %/day, the “Degradation rate of 1% H2O2: log k (%/day)” value ([1]; 40° C.) was −1.031 %/day and the “Degradation rate … (k) (%/day)” value ([1]; 50° C.) was 0.1722 %/day. The “Degradation rate of 1% H2O2: log k (%/day)” value ([1]; 50° C.) was −0.764 %/day, the “Degradation rate … (k) (%/day)” value ([1]; 60° C.) was 0.3691 %/day and the “Degradation rate of 1% H2O2: log k (%/day)” value ([1]; 60° C.) was −0.433 %/day. For the same molecule, the “activation energy for the degradation of H2O2” value ([1]; Arrhenius plot 40-60° C., DETAPMP at pH 4 and 10 mM citrate) was 59.6 kJ/mol and the “Q10 of H2O2 degradation rate” value ([1]; DETAPMP at pH 4 and 10 mM citrate) was “≈ 2”.
In the case of `O=C1CNC(=O)[N-]1.[Ag+]` [Hydantoinate, silver hydantoinate], the Antibacterial index (seven bacteria; pH 5.5, 0.01% H2O2 added) was 2.3, the antibacterial effect (seven bacteria) was “moderate to excellent” and the Antibacterial index (seven bacteria; pH 5.5, no H2O2 added) was 2.7. For the same molecule, the Antibacterial index (seven bacteria; pH 7, no H2O2 added) was 3.3, the Antibacterial index (seven bacteria; pH 8.5, no H2O2 added) was 3.2 and the Appearance index ([2]; pH 5.5, 0.01% H2O2 added) was 3.6. For the same molecule, the Appearance index ([2]; pH 5.5, no H2O2 added) was 4, the Appearance index ([2]; pH 7, no H2O2 added) was 3.4 and the Appearance index ([2]; pH 8.5, no H2O2 added) was 2.8.
For `CC(O)(P(=O)(O)O)P(=O)(O)O` [HEDP, 1-Hydroxyethane-1,1 diphosphonic acid], the “calculated amount of degraded H2O2 after 2 years of storage at 23° C.” value (shortened to “calculated amount of degraded H2O2”) ([3]; pH 4) was 65.4%, the “calculated amount of degraded H2O2” value ([3]; pH 5.5) was 150.0% and the “calculated amount of degraded H2O2” value ([3]; pH 7) was 351.1%.
In the case of `[Cl][Ag]` [silver chloride], the solubility [4] was “sparingly soluble”.
In the case of `[H]/N=C(\N/C(=N/[H])NCCCCCCNC(=N)NC(=N)Nc1ccc(Cl)cc1)Nc1ccc(Cl)cc1` [Chlorhexidine, chlorhexidine digluconate], the solubility [4] was “sparingly soluble”.
In the case of polymeric silver imidazolate, the Antibacterial index (seven bacteria; pH 5.5, 0.01% H2O2 added) was 2.7, the antibacterial effect (seven bacteria) was “moderate to excellent” and the Antibacterial index (seven bacteria; pH 5.5, no H2O2 added) was 0.8. The Antibacterial index (seven bacteria; pH 7, no H2O2 added) was 3.2, the Antibacterial index (seven bacteria; pH 8.5, no H2O2 added) was 2.8 and the Appearance index ([2]; pH 5.5, 0.01% H2O2 added) was 3. The Appearance index ([2]; pH 5.5, no H2O2 added) was 3.4, the Appearance index ([2]; pH 7, no H2O2 added) was 4.2 and the Appearance index ([2]; pH 8.5, no H2O2 added) was 3.2.
For benzalkonium chloride, the “antibacterial effect on E. coli” value (E. coli) was “moderate to high”, the “antibacterial effect on E. faecalis” value (Enterococcus faecalis) was “moderate to high” and the “antibacterial effect on Klebsiella” value (Klebsiella) was “moderate to high”. The “antibacterial effect on P. mirabilis” value (Proteus mirabilis) was “not”, the “antibacterial effect on P. stuartii” value (Providencia Stuartii) was “moderate to high” and the “antibacterial effect on P. aeruginosa” value (Pseudomonas aeruginosa) was “moderate to high”. The “antibacterial effect on S. aureus” value (Staphylococcus aureus) was “moderate to high”.
In the case of `CC1(C)NC(=O)[N-]C1=O.[Ag+]` [5,5-DMH, silver 5,5-dimethylhydantoinate], the Antibacterial index (seven bacteria; pH 5.5, 0.01% H2O2 added) was 1.4, the antibacterial effect (seven bacteria) was “moderate to excellent” and the Antibacterial index (seven bacteria; pH 5.5, no H2O2 added) was 1.8. For the same molecule, the Antibacterial index (seven bacteria; pH 7, no H2O2 added) was 3.4, the Antibacterial index (seven bacteria; pH 8.5, no H2O2 added) was 1.7 and the Appearance index ([2]; pH 5.5, 0.01% H2O2 added) was 5. The Appearance index ([2]; pH 5.5, no H2O2 added) was 2.8, the Appearance index ([2]; pH 7, no H2O2 added) was 3.4 and the Appearance index ([2]; pH 8.5, no H2O2 added) was 2.2.
